The values below come from publication PMC12114444, “Biochemical Characterization and Polyester-Binding/Degrading Capability of Two Cutinases from Aspergillus fumigatus” (Microorganisms, 2025).

The test system of the test is AfCutB. To be noted: 30 °C, 5 min; standard assay 0.05 M Tris-HCl pH 8.5 (results text: optimal conditions, optimum pH 9.0).

As to `CCCC(=O)Oc1ccc([N+](=O)[O-])cc1` [p-nitrophenyl butyrate], the Km (in general, the concentration of substrate that gives half-maximal velocity) came out at 6.29 mM.
